Reference: ChEMBL document CHEMBL4177730, “Rational modification of semaxanib and sunitinib for developing a tumor growth inhibitor targeting ATP binding site of tyrosine kinase” (2018)
Activity calls are given as the source filed them. The calls are words filed in the database; no cut-off is given here.

Tests used:
UACC-62 = assay: Growth inhibition of human UACC62 cells at 10 uM after 48 hrs by sulforhodamine B assay; type: functional, cell-based
OVCAR-5 = assay: Growth inhibition of human OVCAR5 cells after 48 hrs by sulforhodamine B assay; type: functional; details: OVCAR-5, 48 h
UO-31 = assay: Growth inhibition of human UO31 cells after 48 hrs by sulforhodamine B assay; type: functional; details: UO-31, 48 h
LOX IMVI [1] = assay: Growth inhibition of human LOXIMVI cells after 48 hrs by sulforhodamine B assay; type: functional
HCC 2998 = assay: Growth inhibition of human HCC2998 cells after 48 hrs by sulforhodamine B assay; type: functional; details: HCC 2998, 48 h
BT-549 [2] = assay: Growth inhibition of human BT549 cells after 48 hrs by sulforhodamine B assay; type: functional; details: BT-549, 48 h
T47D = assay: Growth inhibition of human T47D cells at 10 uM after 48 hrs by sulforhodamine B assay; type: functional, cell-based
LOX IMVI [3] = assay: Growth inhibition of human LOXIMVI cells at 10 uM after 48 hrs by sulforhodamine B assay; type: functional, cell-based
HL-60(TB) = assay: Growth inhibition of human HL-60(TB) cells at 10 uM after 48 hrs by sulforhodamine B assay; type: functional, cell-based
DU-145 = assay: Growth inhibition of human DU145 cells after 48 hrs by sulforhodamine B assay; type: functional; details: DU-145, 48 h
HOP-62 = assay: Growth inhibition of human HOP62 cells at 10 uM after 48 hrs by sulforhodamine B assay; type: functional, cell-based
SNB-19 = assay: Growth inhibition of human SNB19 cells at 10 uM after 48 hrs by sulforhodamine B assay; type: functional, cell-based
NCI-H460 = assay: Growth inhibition of human NCI-H460 cells at 10 uM after 48 hrs by sulforhodamine B assay; type: functional, cell-based
HOP-92 = assay: Growth inhibition of human HOP92 cells at 10 uM after 48 hrs by sulforhodamine B assay; type: functional, cell-based
SK-MEL-2 = assay: Growth inhibition of human SK-MEL-2 cells after 48 hrs by sulforhodamine B assay; type: functional; details: SK-MEL-2, 48 h
SK-MEL-28 = assay: Growth inhibition of human SK-MEL-28 cells after 48 hrs by sulforhodamine B assay; type: functional; details: SK-MEL-28, 48 h
KM12 = assay: Growth inhibition of human KM12 cells at 10 uM after 48 hrs by sulforhodamine B assay; type: functional, cell-based
SNB-75 = assay: Growth inhibition of human SNB75 cells at 10 uM after 48 hrs by sulforhodamine B assay; type: functional, cell-based
TK-10 = assay: Growth inhibition of human TK10 cells after 48 hrs by sulforhodamine B assay; type: functional; details: TK-10, 48 h
K562 = assay: Growth inhibition of human K562 cells after 48 hrs by sulforhodamine B assay; type: functional; details: K562, 48 h
PC-3 = assay: Growth inhibition of human PC3 cells after 48 hrs by sulforhodamine B assay; type: functional; details: PC-3, 48 h
BT-549 [4] = assay: Growth inhibition of human BT549 cells at 10 uM after 48 hrs by sulforhodamine B assay; type: functional, cell-based
MCF7 = assay: Growth inhibition of human MCF7 cells after 48 hrs by sulforhodamine B assay; type: functional; details: MCF7, 48 h
SW-620 = assay: Growth inhibition of human SW620 cells after 48 hrs by sulforhodamine B assay; type: functional; details: SW-620, 48 h
Malme-3M = assay: Growth inhibition of human MALME-3M cells at 10 uM after 48 hrs by sulforhodamine B assay; type: functional, cell-based
CCRF-CEM = assay: Growth inhibition of human CCRF-CEM cells at 10 uM after 48 hrs by sulforhodamine B assay; type: functional, cell-based
SF-539 = assay: Growth inhibition of human SF539 cells at 10 uM after 48 hrs by sulforhodamine B assay; type: functional, cell-based
SK-MEL-5 = assay: Growth inhibition of human SK-MEL-5 cells after 48 hrs by sulforhodamine B assay; type: functional; details: SK-MEL-5, 48 h
SF-268 [5] = assay: Growth inhibition of human SF268 cells at 10 uM after 48 hrs by sulforhodamine B assay; type: functional, cell-based
NCI/ADR-RES = assay: Growth inhibition of human NCI-ADR-RES cells after 48 hrs by sulforhodamine B assay; type: functional
NCI-H23 = assay: Growth inhibition of human NCI-H23 cells after 48 hrs by sulforhodamine B assay; type: functional; details: NCI-H23, 48 h
SF-268 [6] = assay: Growth inhibition of human SF268 cells after 48 hrs by sulforhodamine B assay; type: functional; details: SF-268, 48 h
A549 [7] = assay: Growth inhibition of human A549/ATCC cells at 10 uM after 48 hrs by sulforhodamine B assay; type: functional, cell-based
NCI-H522 = assay: Growth inhibition of human NCI-H522 cells at 10 uM after 48 hrs by sulforhodamine B assay; type: functional, cell-based
OVCAR-8 = assay: Growth inhibition of human OVCAR8 cells at 10 uM after 48 hrs by sulforhodamine B assay; type: functional, cell-based
A549 [8] = assay: Growth inhibition of human A549/ATCC cells after 48 hrs by sulforhodamine B assay; type: functional; details: A549, 48 h
A498 [9] = assay: Growth inhibition of human A498 cells after 48 hrs by sulforhodamine B assay; type: functional; details: A498, 48 h
A498 [10] = assay: Growth inhibition of human A498 cells at 10 uM after 48 hrs by sulforhodamine B assay; type: functional, cell-based
SK-OV-3 = assay: Growth inhibition of human SKOV3 cells at 10 uM after 48 hrs by sulforhodamine B assay; type: functional, cell-based
IGROV-1 = assay: Growth inhibition of human IGROV1 cells after 48 hrs by sulforhodamine B assay; type: functional; details: IGROV-1, 48 h
[11] = read-out: LC50 (the source's name)

With O=C1/C(=C\c2cccn2Cc2ccccc2)c2ccccc2N1c1c(Cl)cccc1Cl the “growth inhibition (GI)” value (UACC-62) was “Active”, the GI50 (OVCAR-5) was 3.89 µM and the TGI (OVCAR-5) was greater than 100 µM. It also gave a CC50 (OVCAR-5; [11]) greater than 100 µM, a GI50 (UO-31) of 3.16 µM and a TGI (UO-31) greater than 100 µM. It also gave a CC50 (UO-31; [11]) greater than 100 µM, a GI50 (LOX IMVI [1]) greater than 100 µM and a TGI (LOX IMVI [1]) greater than 100 µM. For the same compound, the CC50 (LOX IMVI [1]; [11]) was greater than 100 µM, the GI50 (HCC 2998) was 0.87 µM and the TGI (HCC 2998) was greater than 100 µM. For the same compound, the CC50 (HCC 2998; [11]) was greater than 100 µM, the GI50 (BT-549 [2]) was greater than 100 µM and the TGI (BT-549 [2]) was greater than 100 µM. The CC50 (BT-549 [2]; [11]) was greater than 100 µM, the “growth inhibition (GI)” value (T47D) was “Active” and the “growth inhibition (GI)” value (LOX IMVI [3]) was “Active”. The “growth inhibition (GI)” value (HL-60(TB)) was “Active”, the GI50 (DU-145) was greater than 100 µM and the TGI (DU-145) was greater than 100 µM. For the same compound, the CC50 (DU-145; [11]) was greater than 100 µM, the “growth inhibition (GI)” value (HOP-62) was “Active” and the “growth inhibition (GI)” value (SNB-19) was “Active”. For the same compound, the “growth inhibition (GI)” value (NCI-H460) was “Active”, the “growth inhibition (GI)” value (HOP-92) was “Active” and the GI50 (SK-MEL-2) was 2.23 µM. For the same compound, the TGI (SK-MEL-2) was greater than 100 µM, the CC50 (SK-MEL-2; [11]) was greater than 100 µM and the GI50 (SK-MEL-28) was greater than 100 µM. The TGI (SK-MEL-28) was greater than 100 µM, the CC50 (SK-MEL-28; [11]) was greater than 100 µM and the “growth inhibition (GI)” value (KM12) was “Active”. For the same compound, the “growth inhibition (GI)” value (SNB-75) was “Active”, the GI50 (TK-10) was 0.64 µM and the TGI (TK-10) was greater than 100 µM. It also gave a CC50 (TK-10; [11]) greater than 100 µM, a GI50 (K562) greater than 100 µM and a TGI (K562) greater than 100 µM. The CC50 (K562; [11]) was greater than 100 µM, the GI50 (PC-3) was 6.91 µM and the TGI (PC-3) was greater than 100 µM. For the same compound, the CC50 (PC-3; [11]) was greater than 100 µM, the “growth inhibition (GI)” value (BT-549 [4]) was “Active” and the GI50 (MCF7) was 0.035 µM. For the same compound, the TGI (MCF7) was greater than 100 µM, the CC50 (MCF7; [11]) was greater than 100 µM and the GI50 (SW-620) was greater than 100 µM. For the same compound, the TGI (SW-620) was greater than 100 µM, the CC50 (SW-620; [11]) was greater than 100 µM and the “growth inhibition (GI)” value (Malme-3M) was “Active”. The “growth inhibition (GI)” value (CCRF-CEM) was “Active”, the “growth inhibition (GI)” value (SF-539) was “Active” and the GI50 (SK-MEL-5) was 2.13 µM. The TGI (SK-MEL-5) was greater than 100 µM, the CC50 (SK-MEL-5; [11]) was greater than 100 µM and the “growth inhibition (GI)” value (SF-268 [5]) was “Active”. The GI50 (NCI/ADR-RES) was greater than 100 µM, the TGI (NCI/ADR-RES) was greater than 100 µM and the CC50 (NCI/ADR-RES; [11]) was greater than 100 µM. The GI50 (NCI-H23) was 39.8 µM, the TGI (NCI-H23) was greater than 100 µM and the CC50 (NCI-H23; [11]) was greater than 100 µM. For the same compound, the GI50 (SF-268 [6]) was greater than 100 µM, the TGI (SF-268 [6]) was greater than 100 µM and the CC50 (SF-268 [6]; [11]) was greater than 100 µM. The “growth inhibition (GI)” value (A549 [7]) was “Active”, the “growth inhibition (GI)” value (NCI-H522) was “Active” and the “growth inhibition (GI)” value (OVCAR-8) was “Active”. The GI50 (A549 [8]) was 8.31 µM, the TGI (A549 [8]) was greater than 100 µM and the CC50 (A549 [8]; [11]) was greater than 100 µM. For the same compound, the GI50 (A498 [9]) was greater than 100 µM, the TGI (A498 [9]) was greater than 100 µM and the CC50 (A498 [9]; [11]) was greater than 100 µM. For the same compound, the “growth inhibition (GI)” value (A498 [10]) was “Active”, the “growth inhibition (GI)” value (SK-OV-3) was “Active” and the GI50 (IGROV-1) was 0.54 µM. The TGI (IGROV-1) was greater than 100 µM and the CC50 (IGROV-1; [11]) was greater than 100 µM.
